In patent US11912701B2, “Protein kinase inhibitors for promoting liver regeneration or reducing or preventing hepatocyte death” (HEPAREGENIX GMBH, priority 2018, dated 2024):
Read-outs that look alike come from different tables or passages of the source.

Columns and labels:
BRaf = molecular target: T1, BRaf (Homo sapiens, UniProt P15056); experiment: KINOMEscan competition binding assay, BRaf; details: ratio PoC (off-target)/PoC (MKK4)
T1 construct: purchased ProQinase GmbH, Freiburg, Germany (33PanQinase Assay Service)
T1 sequence (P15056 whole entry, species assumed): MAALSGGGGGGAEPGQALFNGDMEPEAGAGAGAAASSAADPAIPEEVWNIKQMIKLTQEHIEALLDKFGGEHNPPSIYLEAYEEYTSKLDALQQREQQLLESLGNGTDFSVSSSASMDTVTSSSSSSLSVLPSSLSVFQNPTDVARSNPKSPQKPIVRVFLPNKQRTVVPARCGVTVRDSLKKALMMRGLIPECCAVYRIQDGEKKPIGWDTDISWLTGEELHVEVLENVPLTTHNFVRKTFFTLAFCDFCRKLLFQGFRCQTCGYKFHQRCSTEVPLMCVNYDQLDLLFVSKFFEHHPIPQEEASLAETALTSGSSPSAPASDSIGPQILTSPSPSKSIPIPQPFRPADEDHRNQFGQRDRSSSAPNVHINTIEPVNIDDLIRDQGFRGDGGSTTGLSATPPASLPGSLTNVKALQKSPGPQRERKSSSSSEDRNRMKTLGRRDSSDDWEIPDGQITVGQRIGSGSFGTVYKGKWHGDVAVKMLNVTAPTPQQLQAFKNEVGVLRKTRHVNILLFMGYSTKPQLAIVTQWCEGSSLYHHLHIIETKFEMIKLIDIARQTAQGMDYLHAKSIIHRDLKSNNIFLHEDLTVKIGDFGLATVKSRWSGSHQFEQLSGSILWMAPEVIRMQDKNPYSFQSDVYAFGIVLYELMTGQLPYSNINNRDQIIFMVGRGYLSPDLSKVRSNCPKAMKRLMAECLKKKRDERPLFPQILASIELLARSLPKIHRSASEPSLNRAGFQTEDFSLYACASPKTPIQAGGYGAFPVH
Description: (§1) The assay was performed by combining three components: DNA-tagged kinase; immobilized ligand; and a test compound. The ability of the test compound to compete with the immobilized ligand was measured via quantitative PCR of the DNA tag. The technology is described in detail in Fabian, M. A. et al. A small molecule-kinase interaction map for clinical kinase inhibitors. Nat. […] Nat.
(§2) For investigation of the affinity to MKK4, BRaf, MKK7 and JNK1, the kinases were produced in HEK-293 cells and subsequently tagged with DNA for qPCR detection. […] The liganded beads were blocked with excess biotin and washed with blocking buffer (SEABLOCK™ (Pierce), 1% BSA, 0.05% TWEEN®20, 1 mM DTT) to remove unbound ligand and to reduce nonspecific binding. […] All reactions were performed in polystyrene 96-well plates in a final volume of 0.135 mL. […] The kinase concentration in the eluates was measured by qPCR.
(§3) The test compounds were provided as 10 mM stock solutions. The test solutions at indicated final concentrations were prepared at DiscoverX.
(§4) Potency of representative examples against the protein kinases MKK4, BRaf, MKK7 and JNK1 expressed as residual percent of control binding (PoC), was determined at a concentration of 100 nM. The determined potencies are categorized as follows:
(§5) The binding selectivity of representative examples against the protein kinases BRaf, MKK7 and JNK1, altogether denominated as “off-targets” is determined by the ratios of PoC (off-target)/PoC (MKK4).

JNK1 = JNK1 (Homo sapiens, UniProt P45983); experiment: KINOMEscan competition binding assay, JNK1; design: M1/Q384; host or cells: HEK-293; details: ratio PoC (off-target)/PoC (MKK4)
Sequence of JNK1 (P45983 1-384 isoform P45983-2): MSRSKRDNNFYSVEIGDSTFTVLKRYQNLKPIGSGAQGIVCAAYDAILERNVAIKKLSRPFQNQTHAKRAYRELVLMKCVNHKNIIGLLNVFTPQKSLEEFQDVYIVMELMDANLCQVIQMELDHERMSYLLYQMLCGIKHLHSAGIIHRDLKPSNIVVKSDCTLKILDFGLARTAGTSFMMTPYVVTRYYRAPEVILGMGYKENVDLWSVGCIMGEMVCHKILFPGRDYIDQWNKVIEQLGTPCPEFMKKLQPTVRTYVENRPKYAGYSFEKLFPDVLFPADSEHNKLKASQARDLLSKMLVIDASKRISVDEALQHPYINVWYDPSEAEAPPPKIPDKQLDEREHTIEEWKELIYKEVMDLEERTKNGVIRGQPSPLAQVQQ
Description: as §1, §2, §3, §4, §5

MKK7 = molecular target: T2, MKK7 (Homo sapiens, UniProt O14733); experiment: KINOMEscan competition binding assay, MKK7; design: M1/R419; host or cells: HEK-293; details: ratio PoC (off-target)/PoC (MKK4)
T2 sequence (O14733 1-419): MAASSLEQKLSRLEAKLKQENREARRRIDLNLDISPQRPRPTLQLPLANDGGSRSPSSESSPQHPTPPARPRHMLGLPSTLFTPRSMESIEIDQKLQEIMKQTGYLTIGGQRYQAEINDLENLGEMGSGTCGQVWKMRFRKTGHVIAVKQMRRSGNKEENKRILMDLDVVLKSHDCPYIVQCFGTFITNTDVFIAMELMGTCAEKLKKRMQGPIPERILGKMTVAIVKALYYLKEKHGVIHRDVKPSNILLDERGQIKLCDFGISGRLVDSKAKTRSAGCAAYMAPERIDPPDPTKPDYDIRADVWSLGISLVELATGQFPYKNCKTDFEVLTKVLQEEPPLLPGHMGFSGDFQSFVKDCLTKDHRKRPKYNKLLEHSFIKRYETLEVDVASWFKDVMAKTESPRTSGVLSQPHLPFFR
Description: as §1, §2, §3, §4, §5

MKK4 [1] = molecular target: T3, MKK4 (Homo sapiens, UniProt P45985); experiment: 33PanQinase enzyme assay, MKK4; assay type: biochemical; details: for remaining activity at 0.1 µM: read-out: Potency MKK4 (residual activity, assay at single concentration); for IC50: assay 'IC50', read-out: Potency MKK4 (IC50)
T3 construct: purchased ProQinase GmbH, Freiburg, Germany (33PanQinase Assay Service)
T3 sequence (P45985 1-399): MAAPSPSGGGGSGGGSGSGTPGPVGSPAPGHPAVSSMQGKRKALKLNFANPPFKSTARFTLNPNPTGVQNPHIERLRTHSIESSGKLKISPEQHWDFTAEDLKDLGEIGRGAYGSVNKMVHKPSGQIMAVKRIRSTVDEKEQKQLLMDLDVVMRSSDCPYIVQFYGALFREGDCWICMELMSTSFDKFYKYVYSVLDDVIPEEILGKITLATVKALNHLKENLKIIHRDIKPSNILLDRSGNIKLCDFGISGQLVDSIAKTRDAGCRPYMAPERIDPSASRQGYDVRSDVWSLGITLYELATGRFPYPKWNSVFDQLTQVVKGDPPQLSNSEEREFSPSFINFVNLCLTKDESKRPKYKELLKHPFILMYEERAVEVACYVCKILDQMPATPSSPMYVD
Outline: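 Inhibition measured as 33Pi transfer to substrate after a 60-min, 30 °C reaction, acid-stopped and scintillation-counted.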

MKK4 [2] = molecular target: T4, MKK4 (Homo sapiens, UniProt P45985); experiment: KINOMEscan competition binding assay, MKK4; details: residual percent of control binding (PoC) at 100 nM
T4 construct: S84/D399; host or cells: HEK-293
T4 sequence (P45985 84-399): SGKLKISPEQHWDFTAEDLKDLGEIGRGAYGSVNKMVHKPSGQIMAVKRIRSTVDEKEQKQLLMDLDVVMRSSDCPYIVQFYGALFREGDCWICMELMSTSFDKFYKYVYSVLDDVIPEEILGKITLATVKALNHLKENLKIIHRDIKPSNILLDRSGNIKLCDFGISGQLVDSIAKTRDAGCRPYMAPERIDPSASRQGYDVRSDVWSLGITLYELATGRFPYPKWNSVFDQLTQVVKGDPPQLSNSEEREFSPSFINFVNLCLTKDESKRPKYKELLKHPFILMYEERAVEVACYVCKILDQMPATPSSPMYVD
Description: as §1, §2, §3
Potency of representative examples against the protein kinases MKK4, BRaf, MKK7 and JNK1 expressed as residual percent of control binding (PoC), was determined at a concentration of 100 nM. The determined potencies are categorized as follows: […]

Structure (SMILES)	selectivity based on % Ctrl @100 nM vs. Braf (BRaf)	selectivity based on % Ctrl @100 nM vs. JNK1 (JNK1)	selectivity based on % Ctrl @100 nM vs. MKK7 (MKK7)	remaining activity at 0.1 µM (MKK4 [1])	MKK4 [% Ctrl @ 100 nM (MKK4 [2])	remaining activity at 0.1 µM (MKK4 [1]; single concentration 100 nM)	IC50 (MKK4 [1])
Cc1cccc(CS(=O)(=O)Nc2ccc(F)c(C(=O)c3c[nH]c4ncc(-c5ccc(Cl)cc5)cc34)c2F)c1 [Example 37, N-(3-(5-(4-chlorophenyl)-1H-pyrrolo[2,3-b]pyridine-3-carbonyl)-2,4-difluoro-phenyl)-1-(m-tolyl)methanesulfonamide]	+ (10 ≥ ratio > 3)	+ (10 ≥ ratio > 3)	+ (10 ≥ ratio > 3)	70 to 90%	+ (3 ≤ PoC < 30)		
Cc1ccc(CS(=O)(=O)Nc2ccc(F)c(C(=O)c3c[nH]c4ncc(-c5ccc(Cl)cc5)cc34)c2F)cc1 [Example 38, N-(3-(5-(4-chlorophenyl)-1H-pyrrolo[2,3-b]pyridine-3-carbonyl)-2,4-difluoro-phenyl)-1-(p-tolyl)methanesulfonamide]	+ (10 ≥ ratio > 3)	+ (10 ≥ ratio > 3)	+ (10 ≥ ratio > 3)	70 to 90%	+ (3 ≤ PoC < 30)		
O=C(c1c(F)ccc(NS(=O)(=O)Cc2ccccc2)c1F)c1c[nH]c2ncc(-c3ccc(OCC(O)CO)cc3)cc12 (stereo not shown) [Example 40, N-(3-(5-(4-(2,3-dihydroxypropoxy)phenyl)-1H-pyrrolo [2,3-b]pyridine-3-carbonyl)-2,4-difluorophenyl)-1-phenylmethanesulfonamide]	+++ (Ratio > 100)	+++ (Ratio > 100)	+++ (Ratio > 100)		+++ (PoC < 1)	70 to 90%	
O=C(c1c(F)ccc(NS(=O)(=O)Cc2ccccc2)c1F)c1c[nH]c2ncc(-c3ccc(OCC(O)CO)cc3Cl)cc12 (stereo not shown) [Example 41, N-(3-(5-(2-chloro-4-(2,3-dihydroxypropoxy)phenyl)-1H-pyrrolo[2,3-b]pyridine-3-carbonyl)-2,4-difluorophenyl)-1-phenylmethane-sulfonamide]	++ (100 ≥ ratio > 10)	++ (100 ≥ ratio > 10)	++ (100 ≥ ratio > 10)		++ (1 ≤ PoC < 3)	70 to 90%	
CCCS(=O)(=O)Nc1ccc(F)c(C(=O)c2c[nH]c3ncc(-c4ccccn4)cc23)c1F [Example 47]	+ (10 ≥ ratio > 3)	++ (100 ≥ ratio > 10)	++ (100 ≥ ratio > 10)		++ (1 ≤ PoC < 3)		1 to 10 µM
CCCS(=O)(=O)Nc1ccc(F)c(C(=O)c2c[nH]c3ncc(-c4ccc5ccsc5c4)cc23)c1F [Example 51]	◯ (3 ≥ Ratio)	◯ (3 ≥ Ratio)	+ (10 ≥ ratio > 3)		+ (3 ≤ PoC < 30)	70 to 90%	
CCCS(=O)(=O)Nc1ccc(F)c(C(=O)c2c[nH]c3ncc(-c4ccc5ccoc5c4)cc23)c1F [Example 52]	◯ (3 ≥ Ratio)	++ (100 ≥ ratio > 10)	++ (100 ≥ ratio > 10)		+ (3 ≤ PoC < 30)	70 to 90%	
CCCS(=O)(=O)Nc1ccc(Br)c(C(=O)c2c[nH]c3ncc(-c4ccc(Cl)cc4)cc23)c1F [Example 60, N-(4-bromo-3-(5-(4-chlorophenyl)-1H-pyrrolo[2,3-b]pyridine-3-carbonyl)-2-fluorophenyl)propane-1-sulfonamide]	++ (100 ≥ ratio > 10)	++ (100 ≥ ratio > 10)	++ (100 ≥ ratio > 10)		+ (3 ≤ PoC < 30)		1 to 10 µM
CCCS(=O)(=O)Nc1ccc(C#N)c(C(=O)c2c[nH]c3ncc(-c4ccc(Cl)cc4)cc23)c1F [Example 61, N-(3-(5-(4-chlorophenyl)-1H-pyrrolo[2,3-b]pyridine-3-carbonyl)-4-cyano-2-fluorophenyl)propane-1-sulfonamide]	◯ (3 ≥ Ratio)	+ (10 ≥ ratio > 3)	+ (10 ≥ ratio > 3)		◯ (30 ≤ PoC)	> 90%	
CCCS(=O)(=O)Nc1ccc(C#N)c(C(=O)c2c[nH]c3ncc(-c4ccc(Cl)cc4)cc23)c1C#N [Example 62, N-(3-(5-(4-chlorophenyl)-1H-pyrrolo[2,3-b]pyridine-3-carbonyl)-2,4-dicyanophenyl)propane-1-sulfonamide]	◯ (3 ≥ Ratio)	◯ (3 ≥ Ratio)	◯ (3 ≥ Ratio)		◯ (30 ≤ PoC)	> 90%	
CCCS(=O)(=O)Nc1cccc(C(=O)c2c[nH]c3ncc(-c4ccc(Cl)cc4)cc23)c1C#N [Example 63, N-(3-(5-(4-chlorophenyl)-1H-pyrrolo[2,3-b]pyridine-3-carbonyl)-2-cyanophenyl)propane-1-sulfonamide]	◯ (3 ≥ Ratio)	◯ (3 ≥ Ratio)	◯ (3 ≥ Ratio)		◯ (30 ≤ PoC)	50 to 70%	
